Experimental data from article PMC9856093, “CIGB-300 Anticancer Peptide Differentially Interacts with CK2 Subunits and Regulates Specific Signaling Mediators in a Highly Sensitive Large Cell Lung Carcinoma Cell Model” (Biomedicines, 2022).
Positions of bridges follow the written chain, without caps; N, C: chain ends. Non-standard residues stand in square brackets, D forms with d. Residues, ends and D or L forms follow the SMILES beside them. βAla = NCCC(=O)O

Assays:
[1] = tested on: NCI-H460 cells; assay: Annexin V-FITC/PI staining, apoptosis by flow cytometry; type: cell-based, human
Protocol: Apoptosis of NCI-H460 cells was measured using FITC Annexin V Apoptosis Detection Kit (BD Biosciences, San Jose, CA, USA). […] NCI-H460 cells were incubated also with 5 µM CX-4945 for 6 h, 24 h and 48 h. Subsequently, cells were washed twice with cold PBS and resuspended in binding buffer (1X) at a final concentration of 1 × 10^6 cells/mL. Finally, 5 µL of FITC Annexin V and PI were added, and cell suspensions were incubated for 15 min at room temperature in the dark. Flow cytometric analysis of stained cells was performed as previously described. All experiments were performed at least two times.

[2] = tested on: NCI-H460 cells; assay: Cell cycle analysis, PI staining, flow cytometry; type: cell-based, human
Protocol: For cell cycle analysis, NCI-H460 cells were incubated with 30 µM CIGB-300 or with 5 µM CX-4945, respectively, during 6 h, 24 h and 48 h. Following treatment with the peptide, cells were collected by centrifugation, washed with PBS, and fixed at 4 °C for 2 h with ice-cold 70% ethanol. After fixation, cells were treated with DNase-free RNase A (Sigma, St. Louis, MO, USA) and subsequently stained at 37 °C for 20 min with […] PI solution (Sigma, St. Louis, MO, USA). Stained cells were analyzed in the above-mentioned Partec CyFlow Space flow cytometry, and FlowJo Software (v7.6.1) was used for data processing and visualization. All experiments were performed at least four times.

[3] = tested on: mRNA levels of CK2 subunits; assay: Quantitative real-time PCR of CK2 subunit transcripts; type: cell-based, human; conditions: normalised to GAPDH and HMBS
Protocol: Three replicates per condition were used. […] Louis, MO, USA) for RNA isolation (AllPrep DNA/RNA/miRNA Universal Kit, Qiagen, Valencia, CA, USA), according to the manufacturer protocol. All RNA samples were checked by Nanodrop spectrophotometer to measure concentration (ng/μL) and OD relation (260/280 nm). […] Complementary (c)DNAs were obtained from 500 ng of total RNAs, using the Transcriptor First Strand cDNA Synthesis Kit package (Roche, Mannheim, Germany), following manufacturer instructions. […] We amplified two genes for normalization of GAPDH (glyceraldehyde-3-phosphate dehydrogenase) and HMBS (hydroxymethyl-bilane synthase), and the transcripts encoding for CK2 subunits. All the oligonucleotides were synthetized in the Synthesis Department at CIGB (Table S1). Runs were carried out in the LightCycler® 480II equipment (Roche, Mannheim, Germany) in a 96-well format and SYBR Green Probe II mode with a standard program with 45 cycles. Fold changes for transcripts in each treatment were calculated with respect to time-matched control groups after normalization with GAPDH and HMBS genes (v2.0.13, Qiagen GbmH, Munich, Germany), using Ct values and reaction efficiencies per amplicon calculated in […]11.3). Statistical differences are reported in this program, with a p-value-associated with a significance for p < 0.05.

[4] = biological target: T1, CK2α (Homo sapiens, UniProt P68400); assay: In vivo pull-down plus Western blot; type: binding; conditions: biotin-tagged peptide 30 µM, 0.5 h, NCI-H460 cells
T1 construct: endogenous in cells; host or cells: NCI-H460
T1 sequence (P68400 whole entry): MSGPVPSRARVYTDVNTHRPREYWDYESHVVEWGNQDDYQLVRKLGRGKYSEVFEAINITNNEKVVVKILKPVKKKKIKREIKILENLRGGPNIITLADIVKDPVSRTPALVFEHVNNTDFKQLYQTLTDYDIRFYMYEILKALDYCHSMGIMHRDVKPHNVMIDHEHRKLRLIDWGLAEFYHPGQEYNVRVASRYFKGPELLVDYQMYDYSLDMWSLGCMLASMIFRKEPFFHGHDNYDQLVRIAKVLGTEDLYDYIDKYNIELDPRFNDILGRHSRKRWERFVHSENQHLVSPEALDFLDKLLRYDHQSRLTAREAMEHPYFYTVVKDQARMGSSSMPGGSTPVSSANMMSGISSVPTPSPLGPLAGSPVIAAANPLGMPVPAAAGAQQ
Protocol: (§1) For in vivo pull-down assays, N-terminal biotin tagged CIGB-300 (CIGB-300-B) was added to NCI-H460 cells at a final concentration of 30 µM and incubated for 30 min at 37 °C and 5% CO2. Subsequently, cells were collected, washed, and lysed in PBS solution (Sigma, St. Louis, MO, USA) containing 1 mM DTT (Sigma, St. Louis, MO, USA), Triton X-100 (1%), and complete protease inhibitor (Roche, Basel, Switzerland). Cellular lysates were cleared by centrifugation and added to 30 μL of pre-equilibrated streptavidin–sepharose matrix (GE Healthcare, Chicago, IL, USA). In the case of RNA pre-treatment, another cell extract was incubated with RNAase A (10 mg/mL) (Promega, Madison, WI, USA) for 20 min at 37 °C. Following 1 h at 4 °C, the matrix was collected by centrifugation and extensively washed with cold PBS 1 mM and DTT. Proteins bound to streptavidin–sepharose matrix were digested with trypsin (Promega, Madison, WI, USA) during 16 h or eluted for Western blot analysis. In parallel, untreated cells were subjected to the same experimental procedure to identify those proteins non-specifically bound to streptavidin–sepharose matrix. Proteins were resolved in 12% SDS-PAGE and then transferred to a nitrocellulose membrane. For Western blot analysis, a mouse monoclonal antibody against CK2α (Abcam, Cambridge, UK), a rabbit polyclonal antibody against CK2α′ (Abcam, Cambridge, UK), a mouse monoclonal antibody against CK2β (Sigma, St. Louis, MO, USA), and monoclonal rabbit antibodies against PTEN and RPS6 (Cell Signaling, Danvers, MA, USA), respectively, were used as primary antibodies. Detection was performed with peroxidase-conjugated anti-mouse IgG 1:5000 (Sigma, St. Louis, MO, USA) and anti-rabbit IgG 1:5000 (Sigma, St. Louis, MO, USA). In parallel, untreated cells were subjected to the same experimental procedure to identify those proteins non-specifically bound to streptavidin–sepharose matrix. […]

[5] = biological target: T2, CK2α′ (Homo sapiens, UniProt P19784); assay: In vivo pull-down plus Western blot; type: binding; conditions: biotin-tagged peptide 30 µM, 0.5 h, NCI-H460 cells
T2 construct: endogenous in cells; host or cells: NCI-H460
T2 sequence (P19784 whole entry): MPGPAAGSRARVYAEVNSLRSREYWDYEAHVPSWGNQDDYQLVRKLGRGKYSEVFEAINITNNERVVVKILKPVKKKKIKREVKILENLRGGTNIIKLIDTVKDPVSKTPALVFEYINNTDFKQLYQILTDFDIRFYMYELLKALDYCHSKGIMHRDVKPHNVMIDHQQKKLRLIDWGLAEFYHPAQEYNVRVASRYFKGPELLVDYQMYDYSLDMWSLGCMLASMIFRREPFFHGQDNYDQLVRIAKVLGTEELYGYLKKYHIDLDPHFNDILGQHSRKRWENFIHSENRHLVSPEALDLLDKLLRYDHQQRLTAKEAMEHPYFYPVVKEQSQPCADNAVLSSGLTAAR
Protocol: as §1

[6] = biological target: T3, PTEN (Homo sapiens, UniProt P60484); assay: In vivo pull-down plus Western blot; type: binding; conditions: biotin-tagged peptide 30 µM, 0.5 h, NCI-H460 cells
T3 construct: endogenous in cells; host or cells: NCI-H460
T3 sequence (P60484 whole entry): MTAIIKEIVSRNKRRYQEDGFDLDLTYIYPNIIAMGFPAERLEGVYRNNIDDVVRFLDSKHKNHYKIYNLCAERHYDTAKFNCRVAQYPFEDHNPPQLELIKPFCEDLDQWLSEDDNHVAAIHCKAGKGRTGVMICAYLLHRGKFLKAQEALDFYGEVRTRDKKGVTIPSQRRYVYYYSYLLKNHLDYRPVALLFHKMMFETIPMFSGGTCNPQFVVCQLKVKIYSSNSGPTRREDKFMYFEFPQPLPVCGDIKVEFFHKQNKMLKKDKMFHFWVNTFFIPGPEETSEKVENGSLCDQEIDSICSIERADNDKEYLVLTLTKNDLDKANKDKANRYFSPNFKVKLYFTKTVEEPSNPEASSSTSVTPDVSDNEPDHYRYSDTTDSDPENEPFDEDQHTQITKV
Protocol: as §1

[7] = tested on: CK2β; assay: In vivo pull-down plus Western blot; type: binding, human; conditions: biotin-tagged peptide 30 µM, 0.5 h, NCI-H460 cells
Protocol: as §1, with “membrane.” for “membrane. For Western blot analysis, a mouse monoclonal antibody against CK2α (Abcam, Cambridge, UK), a rabbit polyclonal antibody against CK2α′ (Abcam, Cambridge, UK), a mouse monoclonal antibody against CK2β (Sigma, St. Louis, MO, USA), and monoclonal rabbit antibodies against PTEN and RPS6 (Cell Signaling, Danvers, MA, USA), respectively, were used as primary antibodies. Detection was performed with peroxidase-conjugated anti-mouse IgG 1:5000 (Sigma, St. Louis, MO, USA) and anti-rabbit IgG 1:5000 (Sigma, St. Louis, MO, USA). In parallel, untreated cells were subjected to the same experimental procedure to identify those proteins non-specifically bound to streptavidin–sepharose matrix.”

[8] = tested on: RPS6; assay: In vivo pull-down plus Western blot; type: binding, human; conditions: biotin-tagged peptide 30 µM, 0.5 h, NCI-H460 cells; RNAase free assay
Protocol: as §1, with “membrane.” for “membrane. For Western blot analysis, a mouse monoclonal antibody against CK2α (Abcam, Cambridge, UK), a rabbit polyclonal antibody against CK2α′ (Abcam, Cambridge, UK), a mouse monoclonal antibody against CK2β (Sigma, St. Louis, MO, USA), and monoclonal rabbit antibodies against PTEN and RPS6 (Cell Signaling, Danvers, MA, USA), respectively, were used as primary antibodies. Detection was performed with peroxidase-conjugated anti-mouse IgG 1:5000 (Sigma, St. Louis, MO, USA) and anti-rabbit IgG 1:5000 (Sigma, St. Louis, MO, USA). In parallel, untreated cells were subjected to the same experimental procedure to identify those proteins non-specifically bound to streptavidin–sepharose matrix.”

[9] = tested on: p-RPS6 (S235/236); assay: Western blot, CK2 downstream signaling; type: cell-based, human; conditions: NCI-H460, 30 µM, 48 h
Protocol: (§2) NCI-H460 cells were plated on six-well cell culture plates at 1 × 10^6 cells per well and incubated overnight at 37 °C and 5% CO2. […] After incubation, the culture medium was withdrawn, and cells were washed with PBS and lysed in RIPA buffer containing protease/phosphatase inhibitor (Thermo Fisher Scientific, Waltham, MA, USA). Western blot detection was carried out as described (4.6). Primary antibodies against phospho-PTEN (S380) and total PTEN (Cell Signaling Technology, Danvers, MA, USA), phospho-RPS6 (S235/236) and total RPS6 (Cell Signaling Technology, Danvers, MA, USA), Ezrin (Abcam, Cambridge, UK), c-Myc (CIGB, SP, Cuba), and Fibrillarin (Abcam, Cambridge, UK) were used. Primary antibodies against CK2 subunits were used as previously described. All experiments were performed at least two times.

[10] = tested on: c-Myc; assay: Western blot, cancer molecular markers; type: cell-based, human
Protocol: as §2

[11] = tested on: other solid tumor cells; set-up: method as in PMID 35155265; conditions: read-out: IC50 mean value, antiproliferative effect; cited from earlier work
[12] = tested on: NCI-H125; conditions: NCI-H125 NSCLC cell line; cited from earlier work
[13] = tested on: A549; conditions: A549 NSCLC cell line; cited from earlier work
Source text: In this work, we evaluated for the first time the molecular events supporting CK2 inhibition by CIGB-300 in an LCLC in vitro model such as NCI-H460 cells.

[14] = tested on: NCI-H460 cells; assay: Antiproliferative assay, crystal violet staining; type: cell-based; conditions: Homo sapiens, 48 h incubation, CalcuSyn, mean, n = 4, read-out: IC50, antiproliferative effect
Protocol: NCI-H460 was originally obtained from the American Type Culture Collection (ATCC, Manassas, VA, USA). The cell line was cultured in Dulbecco’s modified Eagle’s medium (DMEM) (Gibco, Waltham, MA, USA) supplemented with 10% (v/v) fetal bovine serum (FBS, Invitrogen, Carlsbad, CA, USA) and 50 µg/mL gentamicin (Sigma, St. Louis, MO, USA). Cells were maintained at 37 °C and 5% CO2.
Antiproliferative effect was determined using crystal violet staining. Cells were seeded in flat-bottom 96-well plates (6000 cells/mL), and 24 h later, serial dilutions 1:2 ranging from 200 to 12.5 µM of CIGB-300 and serial dilutions 1:2 ranging from 50 to 3.12 µM of CX-4945 were added, respectively. After 48 h of incubation, the medium was removed from each well and crystal violet (1%) (Sigma, St. Louis, MO, USA) was added and incubated for 5 min at room temperature. After dye removal, wells were washed with water. Absorbance was measured in a CLARIOstar microplate reader (BMG LABTECH, Ortenberg, Germany), and half-inhibitory concentration (IC50) values were estimated using CalcuSyn software (v2.1) (Biosoft, Cambridge, UK).

[15] = NCI-H460, 5 µM, 6 h, 24 h and 48 h

IC50 [14] [µM]	SMILES	apoptotic peak ([1]; NCI-H460, 30 µM, at 6 h) [%]	perturbation of cells accumulated in the G0/G1 and S phases of the cell cycle ([2]; NCI-H460, 30 µM, S phase at 6 h, G0/G1 at 24 h and 48 h)	up-regulation of mRNA levels of CK2 subunits ([3]; NCI-H460, 30 µM, earlier times (0.5 h, 3 h, 6 h))	interaction with CK2α in pull-down fraction [4]	interaction with CK2α′ in pull-down fraction [5]	interaction with PTEN in pull-down fraction [6]	regulatory subunit (β) of CK2 in pull-down fraction [7]	interaction with RPS6 in pull-down fraction [8]	effect on p-RPS6 (S235/236) [9]	effect on c-Myc protein expression ([10]; NCI-H460, 30 µM, 0.5 h to 48 h)	IC50 [11] [µM]	IC50 [12] [µM]	IC50 [13] [µM]	changes in the double-positive region of the panel [1, 15]	cell cycle modulation versus untreated cells [2, 15]	up-regulation of mRNA levels of CK2 subunits ([3]; NCI-H460, 5 µM, longer incubation times (3 h to 24 h))	effect on c-Myc protein expression ([10]; NCI-H460, 5 µM, 6 h to 48 h)
–	CSCC[C@@H]1NC(=O)[C@H](Cc2c[nH]c3ccccc23)NC(=O)[C@@H](NC(=O)CCNC(=O)[C@H](CCC(N)=O)NC(=O)[C@@H]2CCCN2C(=O)[C@@H]2CCCN2C(=O)[C@H](CCCNC(=N)N)NC(=O)[C@H](CCCNC(=N)N)NC(=O)[C@H](CCCNC(=N)N)NC(=O)[C@H](CCC(N)=O)NC(=O)[C@H](CCCNC(=N)N)NC(=O)[C@H](CCCNC(=N)N)NC(=O)[C@H](CCCCN)NC(=O)[C@H](CCCCN)NC(=O)[C@H](CCCNC(=N)N)NC(=O)CN)CSSC[C@@H](C(=O)O)NC(=O)[C@H]([C@@H](C)O)NC(=O)CNC(=O)[C@H](CC(C)C)NC(=O)[C@H](Cc2c[nH]cn2)NC(=O)[C@H](CCCNC(=N)N)NC(=O)[C@@H]2CCCN2C(=O)[C@H](CO)NC1=O [CIGB-300] (H-GRKKRRQRRRPPQ[βAla]CWMSPRHLGTC-OH; disulfide 15-25; N-terminus and C-terminus assumed)	~50	10–15%	no more than 1.5 fold	mainly interacted	mainly interacted	did not interact	only minor levels	evident interaction	potent inhibition	decreased c-Myc protein expression throughout all incubation times	60 to 300	60	171	–	–	–	–
5 ± 2.1	O=C(O)c1ccc2c(c1)nc(Nc1cccc(Cl)c1)c1ccncc12 [CX-4945, reference compound]	–	–	–	–	–	–	–	–	–	–	–	–	–	did not induce any remarkable changes	modified the amount of the cell population in all phases of the cell cycle	no more than 1.5 fold	induced c-Myc up-regulation
